Earlier results, collected in patent US20260216230A1, “SERRATIA ANTICANCER POLYSACCHARIDE COMPOSITIONS AND METHODS” (Board of Supervisors of Louisiana State University and …, priority 2023, published 2026).

Tested on: refractory Stage 4 patients
Settings: phase I

Structure (SMILES): CC(=O)O[C@H]1C(=O)[C@@]2(C)[C@H]([C@H](OC(=O)c3ccccc3)[C@]3(O)C[C@H](OC(=O)[C@H](O)[C@@H](NC(=O)c4ccccc4)c4ccccc4)C(C)=C1C3(C)C)[C@]1(OC(C)=O)CO[C@@H]1C[C@@H]2O [Taxol]
- effectivity: 12%
